# Target: T1, human DP2 (Homo sapiens, UniProt Q9Y5Y4)
# T1 construct: expressed in transfected cells; membranes prepared
# T1 sequence (Q9Y5Y4 1-395): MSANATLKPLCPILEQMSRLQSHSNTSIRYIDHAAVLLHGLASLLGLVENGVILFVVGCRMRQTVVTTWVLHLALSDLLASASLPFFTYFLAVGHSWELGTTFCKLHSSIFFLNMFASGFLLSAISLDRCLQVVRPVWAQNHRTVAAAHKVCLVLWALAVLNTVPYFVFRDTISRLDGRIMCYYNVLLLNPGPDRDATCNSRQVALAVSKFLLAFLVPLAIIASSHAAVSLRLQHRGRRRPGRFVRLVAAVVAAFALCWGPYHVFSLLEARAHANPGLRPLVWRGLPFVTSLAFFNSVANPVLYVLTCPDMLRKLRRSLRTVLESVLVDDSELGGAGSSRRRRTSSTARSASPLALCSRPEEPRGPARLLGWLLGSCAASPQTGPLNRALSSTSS
# Assay: DP-2 binding inhibition assay (3H-PGD2, membranes of DP2-expressing K562 cells)
# Details: 4% HSA, read-out: EC50 (nM) 4% HSA
# Experimental: The coding sequence of human DP2 was introduced into the human Leukemic cell line K562 by electroporation and stable clones expressing DP2 were obtained by limiting dilution followed by cell surface staining with a rat monoclonal antibody specific for human DP2. Membranes were prepared from one of these DP2 expressing clones and used to determine the ability of the compounds of the present invention to inhibit binding of prostaglandin D2 (PGD2) to its receptor DP2 in the presence of one or more of the following serum protein concentrations, 0.1% BSA, 1% HSA or 4% HSA, by the following procedure. […] After incubation for 60 minutes at room temperature, the assay was transferred to a filtration plate (#MAFB; Millipore Corporation, Bedford, Mass.), and washed three times with binding buffer. Radioactivity was measured by a scintillation counter (TopCount; PerkinElmer Life Sciences, Boston, Mass.). Nonspecific binding was determined by incubations in the presence of 1 μM unlabeled PGD2 or 5 μM of a known DP2 antagonist. IC50 values for inhibition of binding were determined for each compound tested from the inflexion point of a standard 4-parameter logistical curve fitted to the values obtained.
row,EC50 [nM],SMILES
1,344,"CSc1ccc(-c2ccc(NC(=O)c3ccc(Oc4cc5c(cc4Cl)C(C(=O)O)CCO5)cc3)nn2)cc1 (stereo not drawn) [Example 64, Sodium 6-chloro-7-(4-(6-(4-(methylthio)phenyl)pyridazin-3-ylcarbamoyl)phenoxy)chroman-4-carboxylate]"
2,96.2,"O=C(Nc1ccc(-c2ccc(Cl)c(Cl)c2)nn1)c1ccc(Oc2cc3c(cc2Cl)C(C(=O)O)CCO3)cc1 (stereo not drawn) [Example 65, Sodium 6-chloro-7-(4-(6-(3,4-dichlorophenyl)pyridazin-3-ylcarbamoyl)phenoxy)chroman-4-carboxylate]"
3,306,"O=C(Nc1ccc(-c2ccc(F)cc2)nn1)c1ccc(Oc2cc3c(cc2Cl)C(C(=O)O)CCO3)cc1 (stereo not drawn) [Example 66, Sodium 6-chloro-7-(4-(6-(4-fluorophenyl)pyridazin-3-ylcarbamoyl)phenoxy)chroman-4-carboxylate]"
4,203,"O=C(Nc1ccc(-c2ccc(Cl)c(F)c2)nn1)c1ccc(Oc2cc3c(cc2Cl)C(C(=O)O)CCO3)cc1 (stereo not drawn) [Example 67, Sodium 6-chloro-7-(4-(6-(4-chloro-3-fluorophenyl)pyridazin-3-ylcarbamoyl)phenoxy)chroman-4-carboxylate]"
5,869,"COc1ccc(-c2ccc(NC(=O)c3ccc(Oc4cc5c(cc4Cl)C(C(=O)O)CCO5)cc3)nn2)cn1 (stereo not drawn) [Example 68, Sodium 6-chloro-7-(4-(6-(6-methoxypyridin-3-yl)pyridazin-3-ylcarbamoyl)phenoxy)chroman-4-carboxylate]"
6,1780,"COc1ccc(-c2ccc(NC(=O)c3ccc(Oc4cc5c(cc4Cl)C(C(=O)O)CCO5)cc3)nn2)c(OC)n1 (stereo not drawn) [Example 69, Sodium 6-chloro-7-(4-(6-(2,6-dimethoxypyridin-3-yl)pyridazin-3-ylcarbamoyl)phenoxy)chroman-4-carboxylate]"
7,437,"O=C(Nc1ccc(-c2ccc(C(F)(F)F)cc2F)nn1)c1ccc(Oc2cc3c(cc2Cl)C(C(=O)O)CCO3)cc1 (stereo not drawn) [Example 70, Sodium 6-chloro-7-(4-(6-(2-fluoro-4-(trifluoromethyl)phenyl)pyridazin-3-ylcarbamoyl)phenoxy)chroman-4-carboxylate]"
8,1510,"O=C(Nc1ccc(-c2ccc(F)cc2F)nn1)c1ccc(Oc2cc3c(cc2Cl)C(C(=O)O)CCO3)cc1 (stereo not drawn) [Example 71, Sodium 6-chloro-7-(4-(6-(2,4-difluorophenyl)pyridazin-3-ylcarbamoyl)phenoxy)chroman-4-carboxylate]"
9,1110,"O=C(Nc1ccc(-c2ccc(Cl)cc2F)nn1)c1ccc(Oc2cc3c(cc2Cl)C(C(=O)O)CCO3)cc1 (stereo not drawn) [Example 72, Sodium 6-chloro-7-(4-(6-(4-chloro-2-fluorophenyl)pyridazin-3-ylcarbamoyl)phenoxy)chroman-4-carboxylate]"
10,959,"COc1ccc(-c2ccc(NC(=O)c3ccc(Oc4cc5c(cc4Cl)C(C(=O)O)CCO5)cc3)nc2)cn1 (stereo not drawn) [Example 73, Sodium 6-chloro-7-(4-(6′-methoxy-3,3′-bipyridin-6-ylcarbamoyl)phenoxy)chroman-4-carboxylate]"
11,794,"COc1ccc(-c2ccc(NC(=O)c3ccc(Oc4cc5c(cc4Cl)C(C(=O)O)CCO5)cc3)nc2)c(OC)n1 (stereo not drawn) [Example 74, Sodium 6-chloro-7-(4-(2′,6′-dimethoxy-3,3′-bipyridin-6-ylcarbamoyl)phenoxy)chroman-4-carboxylate]"
12,149,"O=C(Nc1ccc(-c2cccc(C(F)(F)F)c2)nc1)c1ccc(Oc2cc3c(cc2Cl)C(C(=O)O)CCO3)cc1 (stereo not drawn) [Example 75, 6-Chloro-7-(4-(6-(3-(trifluoromethyl)phenyl)pyridin-3-ylcarbamoyl)phenoxy)chroman-4-carboxylic acid]"
13,101,"O=C(Nc1ccc(-c2ccc(C(F)(F)F)cc2)nc1)c1ccc(Oc2cc3c(cc2Cl)C(C(=O)O)CCO3)cc1 (stereo not drawn) [Example 76, Sodium 6-chloro-7-(4-(6-(4-(trifluoromethyl)phenyl)pyridin-3-ylcarbamoyl)phenoxy)chroman-4-carboxylate]"
14,740,"CCOc1cccc(NC(=O)c2ccc(Oc3cc4c(cc3Cl)C(C(=O)O)CCO4)cc2)n1 (stereo not drawn) [Example 78, 6-Chloro-7-(4-(6-ethoxypyridin-2-ylcarbamoyl)phenoxy)chroman-4-carboxylic acid]"
15,105,"O=C(Nc1cncc(-c2ccc(Cl)cc2)n1)c1ccc(Oc2cc3c(cc2Cl)C(C(=O)O)CCO3)cc1 (stereo not drawn) [Example 79, 6-chloro-7-(4-(6-(4-chlorophenyl)pyrazin-2-ylcarbamoyl)phenoxy)chroman-4-carboxylic acid]"
16,25.1,"COc1nc(C(F)(F)F)ccc1CCNC(=O)c1ccc(Oc2cc3c(cc2Cl)C(C(=O)O)CCO3)cc1 (stereo not drawn) [Example 80, Sodium 6-chloro-7-(4-(2-(2-methoxy-6-(trifluoromethyl)pyridin-3-yl)ethylcarbamoyl)phenoxy)chroman-4-carboxylate]"
17,97.9,"O=C(Nc1cccc(-c2ccc(F)c(F)c2)n1)c1ccc(Oc2cc3c(cc2Cl)C(C(=O)O)CCO3)cc1 (stereo not drawn) [Example 81, 6-Chloro-7-(4-(6-(3,4-difluorophenyl)pyridin-2-ylcarbamoyl)phenoxy)chroman-4-carboxylic acid]"
18,120,"O=C(Nc1cccc(-c2ccc(F)cc2F)n1)c1ccc(Oc2cc3c(cc2Cl)C(C(=O)O)CCO3)cc1 (stereo not drawn) [Example 82, 6-Chloro-7-(4-(6-(2,4-difluorophenyl)pyridin-2-ylcarbamoyl)phenoxy)chroman-4-carboxylic acid]"
19,71.3,"CSc1ccc(-c2cccc(NC(=O)c3ccc(Oc4cc5c(cc4Cl)C(C(=O)O)CCO5)cc3)n2)cc1 (stereo not drawn) [Example 83, 6-Chloro-7-(4-(6-(4-(methylthio)phenyl)pyridin-2-ylcarbamoyl)phenoxy)chroman-4-carboxylic acid]"
20,144,"Cc1cc(-c2cccc(NC(=O)c3ccc(Oc4cc5c(cc4Cl)C(C(=O)O)CCO5)cc3)n2)ccc1F (stereo not drawn) [Example 84, 6-Chloro-7-(4-(6-(4-fluoro-3-methylphenyl)pyridin-2-ylcarbamoyl)phenoxy)chroman-4-carboxylic acid]"
21,22.5,"CC(C)(C)c1ccc(-c2cccc(NC(=O)c3ccc(Oc4cc5c(cc4Cl)C(C(=O)O)CCO5)cc3)n2)cc1 (stereo not drawn) [Example 85, 7-(4-(6-(4-tert-Butylphenyl)pyridin-2-ylcarbamoyl)phenoxy)-6-chlorochroman-4-carboxylic acid]"
22,49.5,"O=C(Nc1cccc(-c2ccc(Cl)c(F)c2)n1)c1ccc(Oc2cc3c(cc2Cl)C(C(=O)O)CCO3)cc1 (stereo not drawn) [Example 86, 6-Chloro-7-(4-(6-(4-chloro-3-fluorophenyl)pyridin-2-ylcarbamoyl)phenoxy)chroman-4-carboxylic acid]"
23,41.4,"O=C(Nc1cccc(-c2ccc(Cl)cc2F)n1)c1ccc(Oc2cc3c(cc2Cl)C(C(=O)O)CCO3)cc1 (stereo not drawn) [Example 87, 6-chloro-7-(4-(6-(4-chloro-2-fluorophenyl)pyridin-2-ylcarbamoyl)phenoxy)chroman-4-carboxylic acid]"
24,55.5,"Cc1ccc(-c2cccc(NC(=O)c3ccc(Oc4cc5c(cc4Cl)C(C(=O)O)CCO5)cc3)n2)cc1F (stereo not drawn) [Example 88, 6-Chloro-7-(4-(6-(3-fluoro-4-methylphenyl)pyridin-2-ylcarbamoyl)phenoxy)chroman-4-carboxylic acid]"
25,251,"O=C(Nc1cccc(-c2cc(F)cc(F)c2)n1)c1ccc(Oc2cc3c(cc2Cl)C(C(=O)O)CCO3)cc1 (stereo not drawn) [Example 89, 6-chloro-7-(4-(6-(3,5-difluorophenyl)pyridin-2-ylcarbamoyl)phenoxy)chroman-4-carboxylic acid]"
26,166,"O=C(Nc1cccc(-c2cccc(F)c2F)n1)c1ccc(Oc2cc3c(cc2Cl)C(C(=O)O)CCO3)cc1 (stereo not drawn) [Example 90, 6-chloro-7-(4-(6-(2,3-difluorophenyl)pyridin-2-ylcarbamoyl)phenoxy)chroman-4-carboxylic acid]"
27,897,"CC(C)(C)Sc1cccc(NC(=O)c2ccc(Oc3cc4c(cc3Cl)C(C(=O)O)CCO4)cc2)n1 (stereo not drawn) [Example 91, 7-(4-(6-(tert-Butylthio)pyridin-2-ylcarbamoyl)phenoxy)-6-chlorochroman-4-carboxylic acid]"
28,415,"O=C(Nc1cncc(-c2cccc(Cl)c2)n1)c1ccc(Oc2cc3c(cc2Cl)C(C(=O)O)CCO3)cc1 (stereo not drawn) [Example 92, 6-Chloro-7-(4-(6-(3-chlorophenyl)pyrazin-2-ylcarbamoyl)phenoxy)chroman-4-carboxylic acid]"
29,80.5,"O=C(Nc1cncc(-c2ccc(C(F)(F)F)cc2)n1)c1ccc(Oc2cc3c(cc2Cl)C(C(=O)O)CCO3)cc1 (stereo not drawn) [Example 93, 6-Chloro-7-(4-(6-(4-(trifluoromethyl)phenyl)pyrazin-2-ylcarbamoyl)phenoxy)chroman-4-carboxylic acid]"
30,208,"O=C(Nc1cncc(-c2cccc(C(F)(F)F)c2)n1)c1ccc(Oc2cc3c(cc2Cl)C(C(=O)O)CCO3)cc1 (stereo not drawn) [Example 94, 6-chloro-7-(4-(6-(3-(trifluoromethyl)phenyl)pyrazin-2-ylcarbamoyl)phenoxy)chroman-4-carboxylic acid]"

# Reference: US8785445B2 (Array BioPharma Inc., priority 2008, dated 2014)
